Assays:
P2 purinoceptors = conditions: cited from earlier work
healthy subjects = assay: Phase I single ascending dose study, safety and tolerance; type: in vivo, human; conditions: single oral dosages up to 4000 mg
Method: A Phase I, single center, single-dose, open-label, sequential ascending dose study to evaluate the safety and tolerance of pyridoxal-5′-phosphate, in an enteric-coated tablet, following a single dose of 250 mg, 750 mg, 1000 mg, and 4000 mg in healthy subjects under fasting conditions was conducted.
A total of 32 healthy, adult subjects signed the study-specific Informed Consent Form and were confined in the clinical study unit; of these subjects, 24 (6 subjects in each dose level; 3 males and 3 females) were dosed and were enrolled in the study; all of these enrolled subjects completed the study. Subjects were confined to the SFBC Anapharm Clinical Research Facility from at least 12 hours prior to drug administration until after the 24.0-hour post-dose blood draw.
Subjects enrolled in this study were members of the community at large. […] All participating subjects were judged eligible for the study when assessed against the inclusion and exclusion criteria. […]

[1] = test system: Individuals diagnosed with mild depression; assay: Assessment of level of depression by depression inventory scales and DSM-IV; type: in vivo, human
Method: Individuals diagnosed with mild depression are divided into four groups at random: control, low dose of P5P (100 mg/day), medium dose of P5P (250 mg/day), and high dose of P5P (750 mg/day). All dosages are administered orally for 3 weeks.
The level of depression of the individuals is assessed, both before, and after treatment, using conventional methodologies. These include completion of several depression inventory questionnaire scales including the Cornell Scale for Depression in Dementia, Centre for Epidemiologic Studies Depression Scale, The Geriatric Depression Scale (Short Version), Beck Depression Inventory and the Zung Self-Rating Depression Scale as well as diagnosis by a trained professional according to the DSM-IV. These questionnaires measure depression through questions related to appetite, sadness, worthlessness/inadequacy, concentration, exhaustion, failure, retardation, socialization, isolation, anxiety, irritability, agitation, loss of interest, lack of energy, diurnal mood variation, insomnia, suicidal thoughts, low self-esteem, pessimism, mood congruent delusions, satisfaction, withdrawal, fulfillment, mood, fear, guilt, self-accusations, somatic preoccupation and loss of libido.

[2] = test system: Human males aged between 65 and 90; assay: Associative learning task (colour-number association recall) in aged males; type: in vivo
Method: Human males aged between 65 and 90 are separated into four random groups: control, low dose of P5P (100 mg/day), medium dose of P5P (250 mg/day), and high dose of P5P (750 mg/day). All dosages are administered orally for 3 weeks before subjecting the patients to an associative learning task.
The patients are subjected to an associative learning task, as follows. Briefly, patients are comfortably seated in front of a computer. Patients are asked to learn the associations between six colors and the numbers 1-6, using trial and error. Subjects are then required to recall this association, a defined period of time after the associations are learned. Tests are repeated, with the defined period of time increasing, until the patients are no longer able to associate the colors with the numbers.

healthy people = conditions: U.S. National Academy of Sciences recommendation; cited from earlier work
males, ages 70-79 years = conditions: 20 mg daily for 3 months; cited from earlier work
[3] = 250 mg/day vs 750 mg/day orally for 3 weeks
[4] = P5P 100, 250 or 750 mg/day orally for 3 weeks

Cc1ncc(COP(=O)(O)O)c(C=O)c1O [P5P, 3-hydroxy-2-methyl-5-[(phosphonooxy)methyl]-4-pyridine-carboxaldehyde]
effect on ATP induced calcium ion influx into cells (P2 purinoceptors): inhibits
tolerability (side effects, evidence of toxicity) (healthy subjects): well tolerated
level of depression, medium vs high dose group [1, 3]: not significantly different
level of depression, medium and high dose groups vs low dose group ([1]; 250 and 750 mg/day vs 100 mg/day orally for 3 weeks): significantly less depressed
level of depression vs control individuals [1, 4]: significantly less depressed
associative learning and memory, medium vs high dose group [2, 3]: no significant difference
time after which the number-colour association can be recalled, vs control patients [2, 4]: significantly longer time

Cc1ncc(CO)c(CO)c1O [pyridoxine]
Tolerable Upper Intake Level (healthy people): 100 mg

vitamin B6
information storage vs matched placebo group (males, ages 70-79 years): improved information storage

Reference: patent US20100196342A1, “MOOD, MEMORY AND COGNITIVE FUNCTION WITH PYRIDOXAL 5'-PHOSPHATE” (priority 2007, published 2010)
